The values that follow come from ChEMBL document CHEMBL1201862, “PubChem BioAssay data set” (2004).

SMILES strings stand for the structures.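 Values below derive from 48-hour exposures of cells grown in 96-well plates, with endpoints linearly interpolated between the two concentrations bracketing the appropriate inhibition level. The concentration for 50% growth inhibition is given as GI50.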 Activity calls are given as the source filed them. No stated cut-off is given here; in the data, active = GI50 up to about 1.1 µM and inactive = higher.

Test systems include A549; EKVX; HCT-15; HL-60; HOP-92; HT-29; LOX IMVI; MDA-MB-435; MOLT-4; Malme-3M; OVCAR-8; RXF 393; SF-295; SF-539; SK-MEL-2; SK-MEL-5; SN12C; UACC-257; UACC-62; UO-31.
Common to all, as to assay: NCI tumour cell line growth inhibition, 48 h

With `N=C(N)SCc1nc(-c2ccc(Cl)cc2)no1`, the GI50 is 38.4 µM (inactive) in the test with A549; 18.5 µM (inactive) with EKVX; 11.2 µM in the test with HCT-15; 13.8 µM (inactive) in the test on HL-60; 29.1 µM (inactive) in the test on HOP-92; 10.2 µM (inactive) in the test with HT-29. Moreover, the GI50 was 14.7 µM (inactive) in the test on LOX IMVI; 12.2 µM (inactive) in the test on MDA-MB-435; 3.56 µM (inactive) in the test with MOLT-4; 16.9 µM (inactive) in the test on Malme-3M; 30.1 µM (inactive) with OVCAR-8; 12.1 µM (inactive) with RXF 393. Besides, the GI50 in the test with SF-295 is 17.9 µM (inactive); in the test on SF-539, 15.8 µM (inactive); in the test with SK-MEL-2, 13.2 µM (inactive); with SK-MEL-5, 31.1 µM (inactive); in the test with SN12C it was 17.8 µM (inactive); with UACC-257 it was 30.5 µM (inactive). The GI50 with UACC-62 is 9.79 µM (inactive).

In the case of `COc1cc(/C=C2\C(=O)N(c3ccc(Cl)cc3)C(c3ccccc3)S2(=O)=O)cc(OC)c1OC` (configuration not stated), the GI50 in the test with A549 is 17.8 µM (inactive); in the test with EKVX, 26.8 µM (inactive); in the test on HCT-15, 1.03 µM; with HL-60, 5.04 µM (inactive); in the test with HOP-92, 51.9 µM (inactive); with HT-29 it was 42.5 µM (inactive). Besides, the GI50 in the test with LOX IMVI was 4.55 µM (inactive); in the test with MDA-MB-435 it was 0.394 µM (active); in the test on MOLT-4, 26.9 µM (inactive); with Malme-3M, 42.3 µM (inactive); in the test on OVCAR-8, 93.1 µM (inactive); in the test on RXF 393 it was 22.4 µM (inactive). Moreover, the GI50 was 11.9 µM (inactive) with SF-295; 57 µM (inactive) in the test on SF-539; 9.77 µM (inactive) in the test on SK-MEL-2; 1.05 µM (active) in the test on SK-MEL-5; > 25.8 µM (inactive) in the test on SN12C; 21.4 µM (inactive) with UACC-257. Moreover, the GI50 is 2.19 µM (inactive) with UACC-62 and 3.48 µM (inactive) in the test with UO-31.

With `COc1cc2c(c(OC)c1OC)-c1ccc(OC)c(=O)cc1C(NC(=O)COc1ccccc1)CC2` (configuration not stated), the GI50 with A549 was < 0.01 µM (active); with EKVX, 0.731 µM (active); in the test on HCT-15 it was 0.0104 µM; in the test on HL-60 it was 0.0372 µM (active); in the test with HOP-92 it was < 0.01 µM (active); with HT-29 it was < 0.01 µM (active). The GI50 with LOX IMVI was < 0.01 µM (active); in the test with MDA-MB-435, < 0.01 µM (active); with MOLT-4 it was < 0.01 µM (active); with Malme-3M it was < 0.01 µM (active); in the test with OVCAR-8 it was < 0.01 µM (active); in the test with RXF 393 it was 0.0184 µM (active). Further, the GI50 was < 0.01 µM (active) with SF-295; < 0.01 µM (active) in the test with SF-539; < 0.01 µM (active) in the test with SK-MEL-2; < 0.01 µM (active) in the test on SK-MEL-5; < 0.01 µM (active) in the test on SN12C; < 0.029 µM (active) in the test with UACC-257. Moreover, the GI50 in the test with UACC-62 was < 0.01 µM (active); in the test with UO-31, 0.0402 µM (active).

For `[O-][S+](CCCl)c1c2ccccc2nc2ccccc12` (configuration not stated), the GI50 in the test with A549 was > 100 µM (inactive); with EKVX, > 100 µM (inactive); with HCT-15 it was over 100 µM; with HL-60 it was 29.4 µM (inactive); in the test with HOP-92, > 100 µM (inactive); in the test on HT-29, 53.6 µM (inactive). Also, the GI50 in the test with LOX IMVI is 79.4 µM (inactive); with MDA-MB-435, 84.9 µM (inactive); in the test with MOLT-4, 37.2 µM (inactive); in the test on Malme-3M, > 100 µM (inactive); with OVCAR-8 it was 85.1 µM (inactive); in the test with RXF 393, > 100 µM (inactive). For the same molecule, the GI50 in the test with SF-295 is > 100 µM (inactive); with SF-539 it was 31.9 µM (inactive); in the test on SK-MEL-2, > 100 µM (inactive); in the test on SN12C, 23.3 µM (inactive); with UACC-257, > 100 µM (inactive); in the test on UACC-62 it was > 100 µM (inactive). The GI50 in the test with UO-31 was > 100 µM (inactive).

As for `C[C@H]1[C@H]2[C@H]3CC[C@@H]4[C@@]5(C)CC[C@H](O)C(C)(C)[C@@H]5CC[C@@]4(C)[C@]3(C)C[C@H](O)[C@@]2(C)C[C@H]2O[C@]21C`, the GI50 was 16.7 µM (inactive) in the test with A549; 24.2 µM (inactive) with EKVX; 20.1 µM with HCT-15; 44 µM (inactive) in the test on HL-60; 17.7 µM (inactive) in the test with HOP-92; 14.3 µM (inactive) with HT-29. The GI50 in the test on LOX IMVI is 16.4 µM (inactive); in the test with MDA-MB-435 it was 18.9 µM (inactive); with MOLT-4, 27.5 µM (inactive); in the test on Malme-3M, 20 µM (inactive); with OVCAR-8 it was 19.6 µM (inactive); with RXF 393 it was 16.7 µM (inactive). Also, the GI50 in the test with SF-295 was 15.6 µM (inactive); with SF-539, 18.8 µM (inactive); in the test with SK-MEL-2, 19 µM (inactive); in the test on SK-MEL-5 it was 16.6 µM (inactive); with SN12C, 16.9 µM (inactive); with UACC-257, 16.8 µM (inactive). Besides, the GI50 with UACC-62 is 23.2 µM (inactive).

In the case of `CNC(=S)NNc1ncnc2c1ncn2-c1ccc(C)cc1`, the GI50 in the test with A549 was > 100 µM (inactive); in the test on EKVX, > 100 µM (inactive); in the test with HCT-15, over 100 µM; in the test with HL-60, > 100 µM (inactive); in the test with HOP-92, > 100 µM (inactive); with HT-29, > 100 µM (inactive). Besides, the GI50 in the test on LOX IMVI, with MDA-MB-435, with MOLT-4, in the test with Malme-3M, with OVCAR-8 and with RXF 393 was > 100 µM (inactive) each time. In addition, the GI50 in the test on SF-295, in the test with SF-539, in the test on SK-MEL-2, in the test with SK-MEL-5, in the test on SN12C and in the test with UACC-257 was > 100 µM (inactive) in each case. Further, the GI50 with UACC-62 and in the test on UO-31 was > 100 µM (inactive) in each case.

For the molecule `COc1cc(NC(C)=O)ccc1C(=O)NN1C(=O)C(Cl)C1c1ccco1` (configuration not stated), the GI50 in the test with A549 was 92.5 µM (inactive); in the test with EKVX, > 100 µM (inactive); with HCT-15, over 100 µM; in the test with HL-60 it was 41.7 µM (inactive); with HOP-92 it was > 100 µM (inactive); with HT-29 it was > 100 µM (inactive). Besides, the GI50 in the test on LOX IMVI is 75.2 µM (inactive); with MDA-MB-435, > 100 µM (inactive); in the test with MOLT-4, 31.9 µM (inactive); in the test on Malme-3M it was > 100 µM (inactive); with OVCAR-8, 87.3 µM (inactive); with RXF 393 it was > 100 µM (inactive). Further, the GI50 in the test on SF-539 is > 100 µM (inactive); with SK-MEL-2 it was > 100 µM (inactive); in the test with SK-MEL-5 it was 76.4 µM (inactive); in the test with SN12C it was > 100 µM (inactive); in the test on UACC-62, > 100 µM (inactive); with UO-31 it was > 100 µM (inactive).

With `c1cc(-c2ccc(-c3ccc(C4=NC5CCCCC5N4)cc3)o2)ccc1C1=NC2CCCCC2N1` (configuration not stated), the GI50 in the test on A549 was 1.71 µM (inactive); with EKVX it was 1.69 µM (inactive); in the test on HCT-15 it was 5.19 µM; in the test with HL-60, 2.31 µM (inactive); in the test with HOP-92, 1.43 µM (inactive); with HT-29, 1.39 µM (inactive). Further, the GI50 was 1.56 µM (inactive) with LOX IMVI; 1.86 µM (inactive) in the test on MDA-MB-435; 1.8 µM (inactive) in the test on MOLT-4; 1.73 µM (inactive) in the test with Malme-3M; 1.79 µM (inactive) in the test on OVCAR-8; 1.95 µM (inactive) with RXF 393. The GI50 was 1.84 µM (inactive) in the test on SF-295; 1.73 µM (inactive) in the test with SF-539; 1.82 µM (inactive) in the test on SK-MEL-2; 1.57 µM (inactive) in the test with SK-MEL-5; 1.47 µM (inactive) in the test with SN12C; 1.75 µM (inactive) in the test on UACC-257. The results for the GI50 in the test with UACC-62 and in the test on UO-31 were 1.71 µM (inactive) and 2.99 µM (inactive), respectively.

With `COc1ccc2c(c1)C(N)=C(c1ccccc1OC)C2=O`, the GI50 in the test with EKVX was > 100 µM (inactive); in the test with HCT-15 it was over 100 µM; in the test with HL-60, 23.5 µM (inactive); in the test with HOP-92, > 100 µM (inactive); in the test with HT-29, > 100 µM (inactive); in the test with LOX IMVI it was > 100 µM (inactive). Further, the GI50 in the test on MDA-MB-435 was 53.6 µM (inactive); in the test with MOLT-4, 75.7 µM (inactive); in the test on Malme-3M, > 100 µM (inactive); with OVCAR-8 it was > 100 µM (inactive); in the test on RXF 393 it was 25.1 µM (inactive); in the test on SF-295, > 100 µM (inactive). Besides, the GI50 is > 100 µM (inactive) in the test on SF-539; > 100 µM (inactive) in the test on SK-MEL-2; > 100 µM (inactive) with SN12C; > 100 µM (inactive) in the test on UACC-257; 77.8 µM (inactive) with UACC-62; 89.7 µM (inactive) in the test on UO-31.

Consider `N#C[C@H]1Nc2ccccc2[C@@H](O)C1O` (some centres not stated), for which the GI50 in the test on A549 is > 100 µM (inactive); in the test with EKVX it was > 100 µM (inactive); with HCT-15 it was over 100 µM; in the test on HL-60 it was > 100 µM (inactive); with HOP-92 it was > 100 µM (inactive); in the test on HT-29, > 100 µM (inactive). Further, the GI50 in the test with LOX IMVI, with MDA-MB-435, with MOLT-4, in the test with Malme-3M, in the test with OVCAR-8 and with RXF 393 was > 100 µM (inactive) throughout. Besides, the GI50 in the test with SF-295, with SF-539, in the test with SK-MEL-2, in the test with SK-MEL-5, with SN12C and in the test with UACC-257 was > 100 µM (inactive) in each case. The GI50 in the test on UACC-62 was > 100 µM (inactive).
